Source: US4657892A, “Pharmacologically active peptides” (priority 1983, dated 1987)
“Also recorded” adds a separate entry of the source. Read-outs that look alike come from different tables or passages of the source. Non-standard residues stand in square brackets, D forms with d. Residues, ends and D or L forms follow the SMILES beside them.

How the values were obtained:
α-chymotrypsin = molecular target: T1, α-chymotrypsin (Bos taurus, UniProt P00766, DEL14-15/DEL147-148); test: enzymatic stability against α-chymotrypsin, remaining activity assayed on guinea-pig ileum; assay type: in vitro ADME; conditions: 1 mg peptide, 50 μg α-chymotrypsin, Krebs-Ringer solution, 5 hours at 37° C.
T1 construct: purchased Serva, Heidelberg
Description: 1 mg of each of the peptides dermorphin, I, II, III and IV (table 1) were dissolved in 1 ml freshly prepared Krebs-Ringer solution and mixed together with 50 μg α-chymotrypsin (Serva, Heidelberg, dissolved in 50 μl Krebs-Ringer solution); immediately after mixing, a 100 μl aliquot was removed and heated up to 95° C. for 15 minutes. (The heating was employed in order to inactivate the enzyme). This aliquot removed, will be later used for reference as initial value (Zero-value of incubation time). The remaining 950 μl of the peptide/enzyme mixture were incubated for 5 hours at 37° C.; the incubation period was also terminated by heating up to 95° C.
After centrifugation identical aliquots of the supernatants were assayed quantitatively for their opiate-like effect and compared with the zero-value; and guinea-pig ileum was also used as assay system (as above described).

[1] = system: isolated guinea-pig ileum; test: opioid activity in the electrically stimulated guinea-pig ileum preparation; assay type: cell-based; conditions: for rel. value Der. = 100 / rel. value Nor. = 100: relative potency; for rel. value Der. = 100: dermorphin IC50 = 100%; for rel. value Nor. = 100: normorphine IC50 = 100%
Source text: As biological test system for determination of the opioid activity the ileum preparation of the guinea-pig was used (detailed description German application No. 29 21 216, p. 24). […] In addition for a better understanding the IC50 -value can be expressed as 100% for the opiates normorphine and dermorphin (DT-OS No. 30 34 897) and the relative activity of the single substances can be given in comparison to normorphine or dermorphine. The indication of the relative potency has the advantage that by this variations of the sensitivity of the assay are neutralized.
The (*) marked values of table 1 correspond to those which have been described by Castiglione et al. (Peptides, 2, p. 266, table 1, substances 1 and 3: column GPI=guinea-pig ileum preparation).
IC50 -values (nM), see description, of two peptides of the invention (III an IV) in comparison to those of the prior art (dermorphin,I,II) as measured in the isolated guinea-pig ileum. […] The inhibiting effect of the substances I, II, III, and IV was antagonized by addition of the specific opiate antagonist naloxone (final concentration in the organ bath 900 nM); upon further addition of the substances I to IV to the organ bath (in presence of naloxone) no further inhibition could be observed; the inhibiting effect of the substances I-IV has therefore to be considered as specific opiate-like.

[2] = system: isolated guinea-pig ileum; conditions: * marked, from Castiglione et al., Peptides 2, p. 266, read-out: IC50 (* values described by Castiglione et al.); cited from earlier work

Question: Which “opiate-like activity remaining after incubation with α-chymotrypsin compared to zero-value” (α-chymotrypsin) does the source give for C[C@@H](NC(=O)[C@@H](N)Cc1ccc(O)cc1)C(=O)N[C@@H](Cc1ccccc1)C(=O)NCC(=O)N[C@@H](Cc1ccc(O)cc1)C(N)=O [Substance II, Tyr--D-Ala--Phe--Gly--Tyr--NH2] (H-Y[dA]FGY-NH2) here?
Answer: The value was “nearly fully destroyed”.

Question: Which “opiate-like activity remaining after incubation with α-chymotrypsin compared to zero-value” (α-chymotrypsin) does the source give for C[C@@H](NC(=O)[C@H](Cc1ccccc1)NC(=O)[C@@H](C)NC(=O)[C@@H](N)Cc1ccc(O)cc1)C(=O)N[C@@H](Cc1ccccc1)C(N)=O [Substance IV, Tyr--D-Ala--Phe--D-Ala--Phe--NH2] (H-Y[dA]F[dA]F-NH2) here?
Answer: Its value is “full opiate-like activity”.

Question: Which results are given for Oc1ccc2c3c1O[C@H]1[C@@H](O)C=C[C@H]4[C@@H](C2)NCC[C@@]341 [Normorphine]?
Answer: IC50 ([1]; Cavia porcellus, isolated guinea-pig ileum, 7 experiments, read-out: IC50 (inhibition of electrically induced contractions by 50%)): 110 nM; rel. value Der. = 100 [1]: 3.2; rel. value Nor. = 100 [1]: 100

Question: With C[C@@H](NC(=O)[C@@H](N)Cc1ccc(O)cc1)C(=O)N[C@@H](Cc1ccccc1)C(=O)NCC(=O)N[C@@H](Cc1ccc(O)cc1)C(=O)N1CCC[C@H]1C(=O)N[C@@H](CO)C(N)=O [Dermorphin] as the compound, how does the IC50 [2] read?
Answer: The IC50 was 3.5 nM.

Question: And the “rel. value Der. = 100” value [1]?
Answer: Its value is 100.

Question: What about the “rel. value Nor. = 100” value [1] of the same compound?
Answer: Its value is 3143.

Question: What about the “opiate-like activity remaining after incubation with α-chymotrypsin compared to zero-value” (α-chymotrypsin) of the same compound?
Answer: Its value is “nearly fully destroyed”.

Question: With C[C@@H](NC(=O)[C@H](Cc1ccccc1)NC(=O)[C@@H](C)NC(=O)[C@@H](N)Cc1ccc(O)cc1)C(=O)N[C@@H](Cc1ccc(O)cc1)C(N)=O [Substance III, Tyr--D-Ala--Phe--D-Ala--Tyr--NH2] (H-Y[dA]F[dA]Y-NH2) as the compound, how does the “opiate-like activity remaining after incubation with α-chymotrypsin compared to zero-value” (α-chymotrypsin) read?
Answer: The value was “higher stability towards proteolytic enzymes (compared to II); also recorded: full opiate-like activity”.

Question: With C[C@@H](NC(=O)[C@@H](N)Cc1ccc(O)cc1)C(=O)N[C@@H](Cc1ccccc1)C(=O)N1CCC[C@H]1C(=O)N[C@@H](Cc1ccc(O)cc1)C(N)=O [Substance I, Tyr--D-Ala--Phe--Pro--Tyr--NH2] (H-Y[dA]FPY-NH2) as the compound, how does the “opiate-like activity remaining after incubation with α-chymotrypsin compared to zero-value” (α-chymotrypsin) read?
Answer: Its value is “higher stability than substance II”.
